Results: ChEMBL document CHEMBL1201862, “PubChem BioAssay data set” (2004)
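How tested: cells in 96-well plates exposed to compound for 48 hours at five concentrations. GI50 is the concentration that inhibits growth by half.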 Active and inactive are the calls of the source. Rule as the data show it: active = GI50 up to about 1.1 µM and inactive = higher.

Columns and labels:
Experiment in all cases: NCI-60 cell line screen, 48 h
[1] = system: M14
[2] = system: SNB-19
[3] = system: HCC 2998
[4] = system: HT-29
[5] = system: OVCAR-8
[6] = system: HOP-62
[7] = system: UACC-62
[8] = system: SN12C
[9] = system: CCRF-CEM
[10] = system: SF-268
[11] = system: PC-3
[12] = system: SW-620
[13] = system: DU-145
[14] = system: RPMI-8226
[15] = system: 786-0
[16] = system: CAKI-1
[17] = system: RXF 393
[18] = system: SK-OV-3
[19] = system: SK-MEL-5
[20] = system: UO-31

| Compound | GI50 [1] | GI50 [2] | GI50 [3] | GI50 [4] | GI50 [5] | GI50 [6] | GI50 [7] | GI50 [8] | GI50 [9] | GI50 [10] | GI50 [11] | GI50 [12] | GI50 [13] | GI50 [14] | GI50 [15] | GI50 [16] | GI50 [17] | GI50 [18] | GI50 [19] | GI50 [20] |
| --- | --- | --- | --- | --- | --- | --- | --- | --- | --- | --- | --- | --- | --- | --- | --- | --- | --- | --- | --- | --- |
| COc1c(C(=O)CC2c3c(cc4oc(C)cc(=O)c4c3OC)OC(=N)C2c2nc3ccccc3[nH]2)c(O)c(OC)c2occc12 (configuration not stated) | > 100 µM (inactive) | > 100 µM (inactive) | > 100 µM (inactive) | > 100 µM (inactive) | > 100 µM (inactive) | > 100 µM (inactive) | > 100 µM (inactive) | > 100 µM (inactive) | > 100 µM (inactive) | > 100 µM (inactive) | > 100 µM (inactive) | > 100 µM (inactive) | > 100 µM (inactive) | > 100 µM (inactive) | > 100 µM (inactive) | > 100 µM (inactive) | > 100 µM (inactive) | > 100 µM (inactive) | > 100 µM (inactive) | > 100 µM (inactive) |
| O=C(OC(=C(c1ccccc1)c1ccccc1)N1CCCC1=S)C(c1ccccc1)c1ccccc1 | > 10 µM (inactive) | > 10 µM (inactive) | 9.44 µM (inactive) | 4.42 µM (inactive) | 7.96 µM (inactive) | > 10 µM (inactive) | > 10 µM (inactive) | > 10 µM (inactive) | 3.94 µM (inactive) | > 10 µM (inactive) | 3.24 µM (inactive) | > 10 µM (inactive) | > 10 µM (inactive) | 7.55 µM (inactive) | > 10 µM (inactive) | > 10 µM (inactive) | > 10 µM (inactive) | 9.18 µM (inactive) | > 10 µM (inactive) | > 10 µM (inactive) |
| Clc1ccc(C2=C(c3ccccc3)C(c3ccc(Cl)cc3)N3C(=N[C@H]4CCCC[C@@H]43)N2)cc1 (some centres not stated) | 12.4 µM (inactive) | 14.5 µM (inactive) | 3.08 µM (inactive) | 3.27 µM (inactive) | 13.7 µM (inactive) | – | 16.7 µM (inactive) | – | 3.58 µM (inactive) | 19.9 µM (inactive) | 10.2 µM (inactive) | 8.05 µM (inactive) | 13.2 µM (inactive) | 2.48 µM (inactive) | 14.7 µM (inactive) | 16.1 µM (inactive) | 13.9 µM (inactive) | 17.1 µM (inactive) | 12.3 µM (inactive) | 13.6 µM (inactive) |
| COC(=O)c1c(O)ccc2c1c1c(n2Cc2ccccn2)C(=O)c2ccccc2C1=O | > 100 µM (inactive) | 86.5 µM (inactive) | 13.2 µM (inactive) | 4.22 µM (inactive) | 50.4 µM (inactive) | 26.7 µM (inactive) | > 100 µM (inactive) | > 100 µM (inactive) | 80 µM (inactive) | 35.9 µM (inactive) | 58.7 µM (inactive) | – | 42.4 µM (inactive) | 25.3 µM (inactive) | 30.9 µM (inactive) | 80.5 µM (inactive) | 52.5 µM (inactive) | 21.7 µM (inactive) | 50.5 µM (inactive) | 87.9 µM (inactive) |
| OCCOCCN1CCN(c2nc(N3CCCC3)c3nc(Cl)c(NCc4ccccc4)nc3n2)CC1 | 11.6 µM (inactive) | 15.3 µM (inactive) | 4.29 µM (inactive) | 3.92 µM (inactive) | 17.4 µM (inactive) | 12.6 µM (inactive) | 14 µM (inactive) | 15.6 µM (inactive) | 12.7 µM (inactive) | 16.5 µM (inactive) | 13.9 µM (inactive) | 17.7 µM (inactive) | 11.9 µM (inactive) | 7.64 µM (inactive) | 13 µM (inactive) | 16 µM (inactive) | 1.98 µM (inactive) | 17.2 µM (inactive) | 5.55 µM (inactive) | 9.4 µM (inactive) |
| CC(C)(Br)C(Br)CCC1(C2CO2)CO1 (configuration not stated) | > 5 µM (inactive) | > 5 µM (inactive) | > 5 µM (inactive) | > 5 µM (inactive) | > 5 µM (inactive) | > 5 µM (inactive) | – | > 5 µM (inactive) | > 5 µM (inactive) | > 5 µM (inactive) | > 5 µM (inactive) | > 5 µM (inactive) | > 5 µM (inactive) | > 5 µM (inactive) | > 5 µM (inactive) | > 5 µM (inactive) | > 5 µM (inactive) | > 5 µM (inactive) | > 5 µM (inactive) | > 5 µM (inactive) |
| COc1ccc2c(c1)CC1Cc3cc(OC)c(OC)cc3CN1CC2 (configuration not stated) | 48.2 µM (inactive) | 35.3 µM (inactive) | 33.4 µM (inactive) | 10.1 µM (inactive) | 33.8 µM (inactive) | 71.3 µM (inactive) | 25.2 µM (inactive) | – | 19.5 µM (inactive) | 82.2 µM (inactive) | 37.4 µM (inactive) | 47.1 µM (inactive) | 36.6 µM (inactive) | 25.8 µM (inactive) | 27.2 µM (inactive) | 35.5 µM (inactive) | 21 µM (inactive) | 71.6 µM (inactive) | 21.3 µM (inactive) | 15.3 µM (inactive) |
| CCn1c(-c2ccc(C)cc2)cs/c1=N\C(P(=O)(O)O)P(=O)(O)O | > 100 µM (inactive) | > 100 µM (inactive) | > 100 µM (inactive) | > 100 µM (inactive) | > 100 µM (inactive) | > 100 µM (inactive) | > 100 µM (inactive) | – | > 100 µM (inactive) | > 100 µM (inactive) | > 100 µM (inactive) | > 100 µM (inactive) | > 100 µM (inactive) | > 100 µM (inactive) | > 100 µM (inactive) | > 100 µM (inactive) | > 100 µM (inactive) | > 100 µM (inactive) | 31.6 µM (inactive) | > 100 µM (inactive) |
| CNC(=S)N/N=C1\C(=O)N(CN2CCOCC2)c2ccc([N+](=O)[O-])cc21 | 31.6 µM (inactive) | 21.9 µM (inactive) | 14.9 µM (inactive) | 40.6 µM (inactive) | – | 14.1 µM (inactive) | 15.3 µM (inactive) | 16.4 µM (inactive) | 23.5 µM (inactive) | 20.2 µM (inactive) | 22.1 µM (inactive) | 28.2 µM (inactive) | 13.7 µM (inactive) | 21.2 µM (inactive) | 15.3 µM (inactive) | 17.7 µM (inactive) | 16.4 µM (inactive) | 16.8 µM (inactive) | 32.5 µM (inactive) | 3.05 µM (inactive) |
| CCc1nc(N)nc(N)c1-c1ccc(Cl)c(Cl)c1 [ETOPRINE] | 0.675 µM (active) | 25.2 µM (inactive) | 12.4 µM (inactive) | 0.879 µM (active) | – | 2.93 µM (inactive) | 0.711 µM (active) | 6.79 µM (inactive) | > 100 µM (inactive) | 6.62 µM (inactive) | 34.5 µM (inactive) | 5.32 µM (inactive) | 11 µM (inactive) | 9.71 µM (inactive) | 0.653 µM (active) | 32 µM (inactive) | 59.3 µM (inactive) | > 100 µM (inactive) | 4.65 µM (inactive) | 2.52 µM (inactive) |
